Data taken from patent US20240368157A1, “FORMS AND COMPOSITIONS OF A JAK2 INHIBITOR” (Ajax Therapeutics, Inc., priority 2023, published 2024).

Assays:
JAK1 = biological target: T1, JAK1 (Homo sapiens, UniProt P23458); test: JAK Family Selectivity Assay (JAK1 vs JAK2 binding affinity); settings: selectivity over JAK2
T1 construct: made in house; host or cells: E. coli (BL21-derived, T7 phage display) or HEK-293
Protocol: (§1) Provided compounds are evaluated for selectivity by comparing their JAK2 binding affinity (Kd) in the above JAK2 Binding Assay with their binding affinity (Kd) for one or more other kinases. Binding affinity for other kinases is determined as follows: Kinase-tagged T7 phage strains are prepared in an E. coli host derived from the BL21 strain. E. coli are grown to log-phase and infected with T7 phage and incubated with shaking at 32° C. until lysis. The lysates are centrifuged and filtered to remove cell debris. The remaining kinases are produced in HEK-293 cells and subsequently tagged with DNA for qPCR detection. Streptavidin-coated magnetic beads are treated with biotinylated small molecule ligands for 30 minutes at room temperature to generate affinity resins for kinase assays. The liganded beads are blocked with excess biotin and washed with blocking buffer (SeaBlock (Pierce), 1% BSA, 0.05% Tween 20, 1 mM DTT) to remove unbound ligand and to reduce non-specific binding. Binding reactions are assembled by combining kinases, liganded affinity beads, and test compounds in 1× binding buffer (20% SeaBlock, 0.17×PBS, 0.05% Tween 20, 6 mM DTT). Test compounds are prepared as 111× stocks in 100% DMSO. Kds are determined using an 11-point 3-fold compound dilution series with three DMSO control points. […] The kinase concentration in the eluates is measured by qPCR. […]

TYK2 = biological target: T2, TYK2 (Homo sapiens, UniProt P29597); test: JAK Family Selectivity Assay (TYK2 vs JAK2 binding affinity); settings: selectivity over JAK2
T2 construct: made in house; host or cells: E. coli (BL21-derived, T7 phage display) or HEK-293
T2 sequence (P29597 whole entry): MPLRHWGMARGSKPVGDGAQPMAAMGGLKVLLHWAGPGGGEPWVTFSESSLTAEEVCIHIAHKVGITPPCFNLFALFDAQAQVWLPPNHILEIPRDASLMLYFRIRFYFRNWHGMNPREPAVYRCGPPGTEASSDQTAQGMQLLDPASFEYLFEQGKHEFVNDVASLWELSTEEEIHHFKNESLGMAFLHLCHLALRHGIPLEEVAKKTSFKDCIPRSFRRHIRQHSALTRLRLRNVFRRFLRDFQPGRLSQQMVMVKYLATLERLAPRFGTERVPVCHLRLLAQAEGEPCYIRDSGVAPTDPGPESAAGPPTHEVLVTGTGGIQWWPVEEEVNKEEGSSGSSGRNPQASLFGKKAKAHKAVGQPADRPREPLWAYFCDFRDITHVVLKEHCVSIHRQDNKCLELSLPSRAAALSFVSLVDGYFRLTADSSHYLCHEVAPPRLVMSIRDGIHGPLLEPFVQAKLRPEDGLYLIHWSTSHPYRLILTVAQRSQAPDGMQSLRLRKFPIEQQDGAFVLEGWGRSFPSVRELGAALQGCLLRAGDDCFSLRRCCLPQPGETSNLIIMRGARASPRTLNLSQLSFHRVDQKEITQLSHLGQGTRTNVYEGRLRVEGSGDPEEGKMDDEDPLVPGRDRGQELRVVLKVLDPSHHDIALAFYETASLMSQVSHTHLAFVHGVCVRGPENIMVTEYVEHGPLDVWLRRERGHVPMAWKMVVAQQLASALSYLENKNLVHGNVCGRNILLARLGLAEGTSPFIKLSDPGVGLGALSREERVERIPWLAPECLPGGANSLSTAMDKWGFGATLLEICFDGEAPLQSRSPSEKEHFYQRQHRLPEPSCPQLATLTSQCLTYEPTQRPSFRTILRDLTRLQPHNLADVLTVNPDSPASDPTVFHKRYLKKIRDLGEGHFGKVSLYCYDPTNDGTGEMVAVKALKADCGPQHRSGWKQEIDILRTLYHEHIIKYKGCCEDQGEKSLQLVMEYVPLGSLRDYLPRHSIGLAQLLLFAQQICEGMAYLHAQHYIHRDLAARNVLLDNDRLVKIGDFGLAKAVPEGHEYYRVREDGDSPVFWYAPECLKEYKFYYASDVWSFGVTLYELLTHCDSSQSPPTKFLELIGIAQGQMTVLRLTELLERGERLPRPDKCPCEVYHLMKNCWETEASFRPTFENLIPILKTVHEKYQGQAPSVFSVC
Protocol: as §1

[1] = system: JAK2-mediated pSTAT5 signaling in constitutively active essential thrombocytopenia cells carrying the V617F mutation; test: SET2-pSTAT5 Cellular Assay; assay type: cell-based; settings: Homo sapiens, SET-2, 4 hours
Protocol: This assay measures inhibition of JAK2-mediated pSTAT5 signaling in constitutively active essential thrombocytopenia cells carrying the V617F mutation. Cells are harvested from a flask into cell culture medium, and the number of cells is counted. The cells are diluted with culture medium and 100 μL of cell suspension (50000/well) is added into each well of a 96-well cell culture plate. A solution of test compound is added to the assay plate. The plates are covered with a lid and placed in a 37° C. 5% CO2 incubator for 4 hours. After 4 hours, the cells are spun, and the cell pellets are re-suspended with 100 μL cold PBS. Then, the cells are spun again at 4° C. and 4000 rpm for 5 min. PBS is aspirated, and 25 μL lysis buffer (with protease and phosphatase inhibitor cocktail) is added to each cell pellet. The cell lysate is shaken at 4° C. for 20 min to fully lyse the cells. The cell lysate is spun at 4° C. and 4000 rpm for 15 min, and then the supernatant is transferred into a new plate and stored at −80° C. Meso-scale discovery (MSD) is used to analyze plates as follows: a standard MSD plate is coated with capture antibody in PBS (40 μL/well) and is incubated at 4° C. overnight with shaking. […] MSD reading buffer (1×) is added to the plates (150 μL/well), and they are diluted from 4× with water. […]

[2] = Hepatocyte Stability Assay (human hepatocytes); assay type: in vitro ADME; settings: cryopreserved hepatocytes, read-out: Human Heps CLint
Protocol: 10 mM stock solutions of test compound and positive control are prepared in DMSO. Stock solutions are diluted to 100 μM by combining 198 μL of 50% acetonitrile/50% water and 2 μL of 10 mM stock solution. Verapamil is used as positive control in the assay. Vials of cryopreserved hepatocytes are thawed in a 37° C. water bath with gently shaking. The contents are poured into the 50 mL thawing medium conical tube. Vials are centrifuged at 100 g for 10 minutes at room temperature. Thawing medium is aspirated and hepatocytes are re-suspended with serum-free incubation medium to yield ˜1.5×10^6 cells/mL. Cell viability and density are counted using a Trypan Blue exclusion, and then cells are diluted with serum-free incubation medium to a working cell density of 0.5×10^6 viable cells/mL. A portion of the hepatocytes at 0.5×10^6 viable cells/mL are boiled for 5 min prior to adding to the plate as negative control to eliminate the enzymatic activity so that little or no substrate turnover should be observed. Aliquots of 198 μL hepatocytes are dispensed into each well of a 96-well non-coated plate. The plate is placed in the incubator for approximately 10 minutes. Aliquots of 2 μL of the 100 μM test compound and 2 μL positive control are added into respective wells of a non-coated 96-well plate to start the reaction. The final concentration of test compound is 1 μM. […]

T1 sequence (P23458 whole entry): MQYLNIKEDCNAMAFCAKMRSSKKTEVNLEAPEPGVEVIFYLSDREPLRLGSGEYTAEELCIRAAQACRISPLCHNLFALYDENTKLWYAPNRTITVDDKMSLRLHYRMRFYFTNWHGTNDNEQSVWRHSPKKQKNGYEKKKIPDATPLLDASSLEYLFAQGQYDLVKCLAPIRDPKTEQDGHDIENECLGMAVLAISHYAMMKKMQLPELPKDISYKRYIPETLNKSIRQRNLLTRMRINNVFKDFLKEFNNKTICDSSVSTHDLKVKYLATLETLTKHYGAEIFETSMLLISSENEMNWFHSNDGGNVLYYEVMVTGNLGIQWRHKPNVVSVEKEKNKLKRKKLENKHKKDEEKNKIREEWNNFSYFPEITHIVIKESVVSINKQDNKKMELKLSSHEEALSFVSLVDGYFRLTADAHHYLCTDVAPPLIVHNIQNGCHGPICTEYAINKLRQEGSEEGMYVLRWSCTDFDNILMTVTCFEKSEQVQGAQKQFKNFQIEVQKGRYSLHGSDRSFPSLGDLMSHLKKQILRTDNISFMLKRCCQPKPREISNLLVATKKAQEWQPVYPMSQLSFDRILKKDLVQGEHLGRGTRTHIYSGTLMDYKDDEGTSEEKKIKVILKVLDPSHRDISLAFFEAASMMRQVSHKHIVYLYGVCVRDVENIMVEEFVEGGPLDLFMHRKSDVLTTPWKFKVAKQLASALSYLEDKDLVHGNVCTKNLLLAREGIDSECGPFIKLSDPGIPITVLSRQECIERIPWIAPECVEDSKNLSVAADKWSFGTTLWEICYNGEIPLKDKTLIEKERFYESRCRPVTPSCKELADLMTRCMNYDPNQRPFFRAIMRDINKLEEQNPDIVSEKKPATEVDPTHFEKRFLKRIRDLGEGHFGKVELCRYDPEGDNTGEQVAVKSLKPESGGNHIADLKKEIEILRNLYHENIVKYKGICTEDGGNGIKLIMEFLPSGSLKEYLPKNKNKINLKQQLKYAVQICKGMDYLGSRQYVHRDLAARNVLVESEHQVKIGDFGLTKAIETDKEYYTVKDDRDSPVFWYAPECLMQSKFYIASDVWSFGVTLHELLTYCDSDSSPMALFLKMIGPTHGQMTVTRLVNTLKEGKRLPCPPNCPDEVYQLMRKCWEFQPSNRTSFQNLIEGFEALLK

| JAK1/JAK2 Kd/Kd ratio (JAK1) | TYK2/JAK2 Kd/Kd ratio (TYK2) | IC50 [1] | CLint scaled at 1 μM [2] | SMILES |
| --- | --- | --- | --- | --- |
| C (Kd/Kd ratio<300 and ≥100) | C (Kd/Kd ratio<300 and ≥100) | 0.2 to 1 µM | 12 to 20 mL/min/kg | CCN1CCN(Cc2ccc(Nc3nc4ccc(Oc5ccnc(NC(C)=O)c5)cc4n3C)cc2C(F)(F)F)CC1 [Compound R-1, reference compound] |
| B (Kd/Kd ratio<1000 and ≥300) | C (Kd/Kd ratio<300 and ≥100) | < 0.125 µM | ≤ 6 mL/min/kg | CN(C)C(=O)Nc1cc(Oc2cnc3nc(Nc4cc(C(F)(F)F)cn(C)c4=O)n(C)c3c2C#N)ccn1 [Compound 1, 3-(4-((7-cyano-1-methyl-2-((1-methyl-2-oxo-5-(trifluoromethyl)-1,2-dihydropyridin-3-yl)amino)-1H-imidazo[4,5-b]pyridin-6-yl)oxy)pyridin-2-yl)-1,1-dimethylurea] |
